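Growth conditions: 96-well plates. Treatment: test compound, 48 hours, 5 concentrations. Analysis: linear interpolation between bracketing concentrations; unreached endpoints set to highest concentration. TGI denotes the concentration required for complete inhibition of growth.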
Tests used:
Test in all cases: NCI anticancer screen, dose series, 48 h
A549 NSCLC = system: A549 NSCLC
CCRF-CEM leukemia = system: CCRF-CEM leukemia
COLO 205 colon = system: COLO 205 colon
DLD-1 colon = system: DLD-1 colon
DMS 114 small cell lung = system: DMS 114 small cell lung
DMS 273 small cell lung = system: DMS 273 small cell lung
EKVX NSCLC = system: EKVX NSCLC
HCC-2998 colon = system: HCC-2998 colon
HCT-116 colon = system: HCT-116 colon
HCT-15 colon = system: HCT-15 colon
HL-60(TB) leukemia = system: HL-60(TB) leukemia
HOP-18 NSCLC = system: HOP-18 NSCLC
HOP-62 NSCLC = system: HOP-62 NSCLC
HT29 colon = system: HT29 colon
IGROV1 ovarian = system: IGROV1 ovarian
K-562 leukemia = system: K-562 leukemia
KM12 colon = system: KM12 colon
LOX IMVI melanoma = system: LOX IMVI melanoma
LXFL 529 NSCLC = system: LXFL 529 NSCLC
M14 melanoma = system: M14 melanoma
M19-MEL melanoma = system: M19-MEL melanoma
MALME-3M melanoma = system: MALME-3M melanoma
NCI-H226 lung = system: NCI-H226 lung
NCI-H23 lung = system: NCI-H23 lung
NCI-H522 lung = system: NCI-H522 lung
OVCAR-3 ovarian = system: OVCAR-3 ovarian
OVCAR-4 ovarian = system: OVCAR-4 ovarian
OVCAR-5 ovarian = system: OVCAR-5 ovarian
OVCAR-8 ovarian = system: OVCAR-8 ovarian
RPMI-8226 leukemia = system: RPMI-8226 leukemia
SF-268 CNS = system: SF-268 CNS
SF-295 CNS = system: SF-295 CNS
SF-539 CNS = system: SF-539 CNS
SK-MEL-28 melanoma = system: SK-MEL-28 melanoma
SK-MEL-5 melanoma = system: SK-MEL-5 melanoma
SK-OV-3 ovarian = system: SK-OV-3 ovarian
SN12C renal = system: SN12C renal
SNB-19 CNS = system: SNB-19 CNS
SNB-75 CNS = system: SNB-75 CNS
SNB-78 CNS = system: SNB-78 CNS
SR leukemia = system: SR leukemia
SW-620 colon = system: SW-620 colon
TK-10 renal = system: TK-10 renal
UACC-257 melanoma = system: UACC-257 melanoma
UACC-62 melanoma = system: UACC-62 melanoma
UO-31 renal = system: UO-31 renal
XF 498 CNS = system: XF 498 CNS
786-0 renal = system: 786-0 renal
A498 renal = system: A498 renal
ACHN renal = system: ACHN renal
CAKI-1 renal = system: CAKI-1 renal
KM20L2 colon = system: KM20L2 colon
MOLT-4 leukemia = system: MOLT-4 leukemia
NCI-H460 lung = system: NCI-H460 lung
RXF 393 renal = system: RXF 393 renal
SK-MEL-2 melanoma = system: SK-MEL-2 melanoma
U251 CNS = system: U251 CNS
HOP-92 NSCLC = system: HOP-92 NSCLC

OC12c3ccccc3C1CCCCCCCCCC21OCCCO1 (configuration not stated)
TGI (A549 NSCLC): > 100 µM
TGI (CCRF-CEM leukemia): > 100 µM
TGI (COLO 205 colon): > 100 µM
TGI (DLD-1 colon): > 100 µM
TGI (DMS 114 small cell lung): > 100 µM
TGI (DMS 273 small cell lung): > 100 µM
TGI (EKVX NSCLC): > 100 µM
TGI (HCC-2998 colon): > 100 µM
TGI (HCT-116 colon): > 100 µM
TGI (HCT-15 colon): > 100 µM
TGI (HL-60(TB) leukemia): > 100 µM
TGI (HOP-18 NSCLC): > 100 µM
TGI (HOP-62 NSCLC): > 100 µM
TGI (HT29 colon): > 100 µM
TGI (IGROV1 ovarian): > 100 µM
TGI (K-562 leukemia): > 100 µM
TGI (KM12 colon): > 100 µM
TGI (LOX IMVI melanoma): > 100 µM
TGI (LXFL 529 NSCLC): > 100 µM
TGI (M14 melanoma): > 100 µM
TGI (M19-MEL melanoma): > 100 µM
TGI (MALME-3M melanoma): > 100 µM
TGI (NCI-H226 lung): > 100 µM
TGI (NCI-H23 lung): > 100 µM
TGI (NCI-H522 lung): > 100 µM
TGI (OVCAR-3 ovarian): > 100 µM
TGI (OVCAR-4 ovarian): > 100 µM
TGI (OVCAR-5 ovarian): > 100 µM
TGI (OVCAR-8 ovarian): > 100 µM
TGI (RPMI-8226 leukemia): > 100 µM
TGI (SF-268 CNS): > 100 µM
TGI (SF-295 CNS): > 100 µM
TGI (SF-539 CNS): > 100 µM
TGI (SK-MEL-28 melanoma): > 100 µM
TGI (SK-MEL-5 melanoma): > 100 µM
TGI (SK-OV-3 ovarian): > 100 µM
TGI (SN12C renal): > 100 µM
TGI (SNB-19 CNS): > 100 µM
TGI (SNB-75 CNS): > 100 µM
TGI (SNB-78 CNS): > 100 µM
TGI (SR leukemia): > 100 µM
TGI (SW-620 colon): > 100 µM
TGI (TK-10 renal): > 100 µM
TGI (UACC-257 melanoma): > 100 µM
TGI (UACC-62 melanoma): > 100 µM
TGI (UO-31 renal): > 100 µM
TGI (XF 498 CNS): > 100 µM

O=[N+]([O-])c1ccc2c(c1)OCCOCCOc1ccc([N+](=O)[O-])cc1OCCOCCO2
TGI (786-0 renal): > 100 µM
TGI (A498 renal): > 100 µM
TGI (A549 NSCLC): > 100 µM
TGI (ACHN renal): > 100 µM
TGI (CAKI-1 renal): > 100 µM
TGI (CCRF-CEM leukemia): > 100 µM
TGI (COLO 205 colon): > 100 µM
TGI (DMS 114 small cell lung): > 100 µM
TGI (DMS 273 small cell lung): > 100 µM
TGI (EKVX NSCLC): > 100 µM
TGI (HCC-2998 colon): > 100 µM
TGI (HCT-116 colon): > 100 µM
TGI (HCT-15 colon): > 100 µM
TGI (HL-60(TB) leukemia): > 100 µM
TGI (HOP-62 NSCLC): > 100 µM
TGI (HT29 colon): > 100 µM
TGI (IGROV1 ovarian): > 100 µM
TGI (K-562 leukemia): > 100 µM
TGI (KM12 colon): > 100 µM
TGI (KM20L2 colon): > 100 µM
TGI (LOX IMVI melanoma): > 100 µM
TGI (M14 melanoma): > 100 µM
TGI (MALME-3M melanoma): > 100 µM
TGI (MOLT-4 leukemia): > 100 µM
TGI (NCI-H226 lung): > 100 µM
TGI (NCI-H23 lung): > 100 µM
TGI (NCI-H460 lung): > 100 µM
TGI (NCI-H522 lung): > 100 µM
TGI (OVCAR-3 ovarian): > 100 µM
TGI (OVCAR-4 ovarian): > 100 µM
TGI (OVCAR-5 ovarian): > 100 µM
TGI (OVCAR-8 ovarian): > 100 µM
TGI (RPMI-8226 leukemia): > 100 µM
TGI (RXF 393 renal): > 100 µM
TGI (SF-268 CNS): > 100 µM
TGI (SF-295 CNS): > 100 µM
TGI (SF-539 CNS): > 100 µM
TGI (SK-MEL-2 melanoma): > 100 µM
TGI (SK-MEL-28 melanoma): > 100 µM
TGI (SK-MEL-5 melanoma): > 100 µM
TGI (SK-OV-3 ovarian): > 100 µM
TGI (SN12C renal): > 100 µM
TGI (SNB-19 CNS): > 100 µM
TGI (SNB-75 CNS): > 100 µM
TGI (SNB-78 CNS): > 100 µM
TGI (SR leukemia): > 100 µM
TGI (SW-620 colon): > 100 µM
TGI (TK-10 renal): > 100 µM
TGI (U251 CNS): > 100 µM
TGI (UACC-257 melanoma): > 100 µM
TGI (UACC-62 melanoma): > 100 µM
TGI (UO-31 renal): > 100 µM

COC1=C(OC)C(=O)c2cc(SC)c(=O)c(SC)cc2C1=O
TGI (786-0 renal): 35.2 µM
TGI (A498 renal): 66.3 µM
TGI (A549 NSCLC): 43.8 µM
TGI (ACHN renal): 28.9 µM
TGI (CAKI-1 renal): > 100 µM
TGI (CCRF-CEM leukemia): 4.93 µM
TGI (COLO 205 colon): > 100 µM
TGI (DLD-1 colon): > 100 µM
TGI (DMS 114 small cell lung): 13.4 µM
TGI (DMS 273 small cell lung): > 100 µM
TGI (EKVX NSCLC): 48.9 µM
TGI (HCC-2998 colon): > 100 µM
TGI (HCT-116 colon): 46.3 µM
TGI (HCT-15 colon): > 100 µM
TGI (HL-60(TB) leukemia): 3.97 µM
TGI (HOP-18 NSCLC): 82.2 µM
TGI (HOP-62 NSCLC): 31.2 µM
TGI (HOP-92 NSCLC): 48.4 µM
TGI (HT29 colon): > 100 µM
TGI (IGROV1 ovarian): > 100 µM
TGI (K-562 leukemia): 33.3 µM
TGI (KM12 colon): > 100 µM
TGI (KM20L2 colon): > 100 µM
TGI (LOX IMVI melanoma): 16.6 µM
TGI (LXFL 529 NSCLC): 29.5 µM
TGI (M14 melanoma): 32.6 µM
TGI (MOLT-4 leukemia): 17.4 µM
TGI (NCI-H226 lung): 28.4 µM
TGI (NCI-H23 lung): 20.2 µM
TGI (NCI-H460 lung): > 100 µM
TGI (NCI-H522 lung): 34.9 µM
TGI (OVCAR-3 ovarian): 23.4 µM
TGI (OVCAR-4 ovarian): 24.8 µM
TGI (OVCAR-8 ovarian): 50.9 µM
TGI (RPMI-8226 leukemia): 40.2 µM
TGI (RXF 393 renal): 16.8 µM
TGI (SF-268 CNS): 28.3 µM
TGI (SF-295 CNS): 29.2 µM
TGI (SF-539 CNS): 24.8 µM
TGI (SK-MEL-2 melanoma): 15.5 µM
TGI (SK-MEL-28 melanoma): 26.7 µM
TGI (SK-MEL-5 melanoma): 25.9 µM
TGI (SK-OV-3 ovarian): > 100 µM
TGI (SN12C renal): 28.7 µM
TGI (SNB-19 CNS): 60.7 µM
TGI (SNB-75 CNS): 28.1 µM
TGI (SR leukemia): 22.7 µM
TGI (SW-620 colon): > 100 µM
TGI (TK-10 renal): > 100 µM
TGI (U251 CNS): 38.7 µM
TGI (UACC-257 melanoma): 21.6 µM
TGI (UACC-62 melanoma): 4.45 µM
TGI (UO-31 renal): 40.5 µM
TGI (XF 498 CNS): 15.1 µM

Cc1c2[nH]c3ccc(Br)cc3c2c(C)c2[nH]ccc(=O)c12
TGI (786-0 renal): 25.1 µM
TGI (A549 NSCLC): 25.7 µM
TGI (ACHN renal): 22.5 µM
TGI (CAKI-1 renal): 28 µM
TGI (CCRF-CEM leukemia): 31.6 µM
TGI (COLO 205 colon): 27.1 µM
TGI (DLD-1 colon): > 100 µM
TGI (DMS 114 small cell lung): 35.2 µM
TGI (DMS 273 small cell lung): 27 µM
TGI (EKVX NSCLC): 33.5 µM
TGI (HCC-2998 colon): 31.1 µM
TGI (HCT-116 colon): 28.2 µM
TGI (HCT-15 colon): 30.4 µM
TGI (HL-60(TB) leukemia): 38.5 µM
TGI (HOP-18 NSCLC): 22.9 µM
TGI (HOP-62 NSCLC): 28.6 µM
TGI (HT29 colon): 30.2 µM
TGI (K-562 leukemia): 55.7 µM
TGI (KM12 colon): 25.6 µM
TGI (LOX IMVI melanoma): 32.7 µM
TGI (M14 melanoma): 30.9 µM
TGI (M19-MEL melanoma): 29.6 µM
TGI (MALME-3M melanoma): 28 µM
TGI (MOLT-4 leukemia): 28 µM
TGI (NCI-H226 lung): 35.9 µM
TGI (NCI-H23 lung): 37.8 µM
TGI (NCI-H460 lung): 23.1 µM
TGI (NCI-H522 lung): 28.5 µM
TGI (OVCAR-3 ovarian): 32.2 µM
TGI (OVCAR-4 ovarian): 31.3 µM
TGI (OVCAR-5 ovarian): 30 µM
TGI (OVCAR-8 ovarian): 76.9 µM
TGI (RPMI-8226 leukemia): 41.5 µM
TGI (SF-268 CNS): 32.6 µM
TGI (SF-295 CNS): 28.7 µM
TGI (SF-539 CNS): 32 µM
TGI (SK-MEL-2 melanoma): 33.8 µM
TGI (SK-MEL-28 melanoma): 34.8 µM
TGI (SK-MEL-5 melanoma): 64.2 µM
TGI (SN12C renal): 32.4 µM
TGI (SNB-19 CNS): 33.2 µM
TGI (SNB-75 CNS): > 100 µM
TGI (SNB-78 CNS): 35.7 µM
TGI (SR leukemia): 37.9 µM
TGI (SW-620 colon): 25.5 µM
TGI (TK-10 renal): 26.9 µM
TGI (UACC-257 melanoma): 34.9 µM
TGI (UO-31 renal): 24.2 µM
TGI (XF 498 CNS): 29.7 µM

— PubChem BioAssay (NCI)
